Results as given in patent publication US20220202739A1, “ENDOCANNABINOID MIMETIC AND ANTI-INFLAMMATORY COMPOUND CONTAINING COMPOSITIONS, METHODS OF PREPARATION AND USES THEREOF” (priority 2019, published 2022).
Where two headings read alike, the source gives them in different places.

Test system: PPARG
Assay: Gene expression custom microarray, human skin fibroblasts (Example 1): PPARG
Format: cell-based
Conditions: for fold induction at 10 µM: Skin fibroblast, read-out: PPARG↑ gene expression, fold increase or decrease vs untreated cells
Description: Cell cultures: A human skin fibroblast cell culture (or cultures) was obtained through the Coriell Cell Repository from the National Institute on Aging Cell Repository (Camden, N.J.), or Promocell GmbH (Heidelberg, Germany). The initial culture was selected from the following cell lines: AG13066, AG11557, AG11796 or GM03651E. The cell lines were derived from donors as follows:
Experimental phase: When the appropriate quantity of cells had been grown, they were detached as described above, but at the final step were seeded into each well of one or more 6 well dishes. Each well received 2 ml of the cell suspension so they were seeded equally. The dishes were returned to the incubator until 85-95% confluency was reached.
It is at this stage that all wells were rinsed in PBS after aspirating the growth media. The compound(s) to be tested were previously mixed into a suitable solvent (e.g., DMSO or ethanol) that can be diluted to the desired concentration of test compound (10 μl) in the culture wells without exceeding maximum solvent concentrations and adversely effecting cell viability, and mixed with basal media. NOTE: Standard maximum levels of solvent are 0.1% for DMSO and 0.5% for ETOH.
Every 2 wells on the 6 well plate served as a biological replicate for the purposes of RNA isolation and genetic expression evaluations making each 6 well dish an n=3 for the test compound(s) contained in the media. Negative control plates (no test compound(s) and only basal media) were also generated. The plates were returned to the incubator for 24 hrs.
At the end of the 24 hr time period, the plates were removed from the incubator, the test media aspirated, and the cells rinsed with PBS. RNA isolation is performed using the BioRad Aurum Total RNA Mini Kit (Hercules, Calif.) per manufacturer's protocol; which is described, in brief, below: • Add 350 μl of lysis buffer to each well. Pipet multiple times to ensure thorough lysis. Add lysed cells to the collection tube. • Add 350 μl of 70% ETOH to the collection tube and mix thoroughly. • Pipet the generated lysate onto the spin column placed in a new 2 ml tube. Centrifuge for 30 sec between 8,000 and 10,000 g. • Place the spin column containing the now bound RNA, in a new 2 ml tube. Add 700 μl of low stringency wash solution to the spin column. Centrifuge for 30 sec between 8,000 and 10,000 g. Discard the flow through and replace spin column. • Add 80 μl of DNase I dilution to the spin column and incubate at room temperature for 15 minutes. • Add 700 μl of high stringency wash solution to the column and centrifuge for 30 sec between 8,000 and 10,000 g. Discard flow through. • Add 700 μl of low stringency wash solution to the column and centrifuge for 60 sec between 8,000 and 10,000 g. Discard flow through. • Centrifuge for 2 minutes to remove residual wash solution. • Transfer spin column to new 1.5 ml collection tube and add 80 μl of elution solution to the column. Allow 1 minute for saturation of the membrane and then centrifuge for 2 minutes to complete the RNA elution. • Quantify the quantity of RNA and store at −20 C° until use (no more than 1 month)
The genes tested were: • Cannabinoid receptor 1 (CB1(CNR1)) • Cannabinoid receptor 2 (CB2 (CNR2)) • Fatty acid amide hydrolase (FAAH) • Monoacylglycerol lipase (MGLL, i.e., MAGL) • Peroxisome proliferator-activated receptor gamma (PPARG) • Nuclear factor kappa-light-chain-enhancer of activated B cells (NFκβ) • Interleukin 1 Alpha (IL1alpha) • Cyclooxygenase 1 (PTGS1, i.e., COX1) • Transient receptor potential cation channel subfamily A member 1 (TRPA1) • Transient receptor potential cation channel subfamily V member 1 (TRPV1) • Transient receptor potential cation channel subfamily M member 8 (TRPM8) • Hemoglobin Subunit Beta (HBB) REFERENCE GENE • Ribosomal Protein L13a (RPL13A) REFERENCE GENE

[1] = human skin fibroblasts, 10 uM, 24 hr

SMILES: C=C(C)[C@@H]1CCC(C)=C[C@H]1c1c(O)cc(CCCCC)cc1O [CBD, cannabidiol, reference compound]
- fold induction at 10 µM (Homo sapiens, 24 h): 8.1

SMILES: CCCCCCCCCCCCCCCC(=O)NCCO [N-palmitoylethanolamide]
- PPARG↑ gene expression, fold increase or decrease vs untreated cells [1]: 2.6 fold

SMILES: CC(C)[C@]12O[C@H]1[C@@H]1O[C@]13[C@]1(O[C@H]1C[C@H]1C4=C(CC[C@@]13C)C(=O)OC4)[C@@H]2O [Triptolide]
- fold induction at 10 µM [1]: 1.1
